The target in test [1] is T1, MRGPRX2 (Homo sapiens, UniProt Q96LB1).
T1 sequence (Q96LB1 1-330): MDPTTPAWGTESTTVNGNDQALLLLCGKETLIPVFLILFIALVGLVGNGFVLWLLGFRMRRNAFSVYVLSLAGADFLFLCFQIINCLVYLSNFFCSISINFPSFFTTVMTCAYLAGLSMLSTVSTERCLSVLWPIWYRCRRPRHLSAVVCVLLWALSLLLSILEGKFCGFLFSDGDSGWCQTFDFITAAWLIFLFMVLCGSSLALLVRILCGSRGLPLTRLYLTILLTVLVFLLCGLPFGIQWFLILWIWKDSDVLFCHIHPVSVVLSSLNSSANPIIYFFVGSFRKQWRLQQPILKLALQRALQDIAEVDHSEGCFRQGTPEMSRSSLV
Description: MRGPRX2 IP1 HTRF assay. It is filed as cell-based. More on the design: host or cells: CHO-K1. To be noted: CHO-K1 cells stably expressing human MRGPRX2; agonist Cortistatin 14 1 μM; IP1 accumulation. Here is the method:
This assay measures compound inhibition of myo-Inositol 1 phosphate (IP1) accumulation in CHO-K1 cells. Chinese hamster ovary (CHO-K1) cells stably expressing human MRGPRX2 were purchased from GenScript (Piscataway, NJ).
For the HTRF IP1 determination, an IP-One GqKit (Perkin Elmer Cisbio, Waltham, MA), which includes all reagents and buffers in this protocol, was used. The cells were maintained in culture medium (Ham's F-12K) containing 10% (v/v) FBS, and 200 μg/mL Zeocin. For the assay, the cells were harvested and resuspended in culture medium with 2% FBS and without Zeocin, then were passed through a 40 μm filter. Cells were added at 20000 cells in a 5 μL/well to a 384-well white small volume cell culture plate (Greiner VWR, Radnor, PA) which contained 50 nL/well of test compound serially diluted at a selected concentration range in DMSO. 5 μL/well of prepared 2× Stimulation Buffer2 was then added to plates and was incubated at 37° C. with 5% CO2 for 1 h. 5 μL/well of agonist Cortistatin 14 (Bio-TechneR&D Systems, Minneapolis, MN) in 1×Stimulation Buffer 2, for a 1 μM final concentration, was then added to plates and incubated at 37° C. with 5% CO2 for 1 h. 6 μL/well of 1:20 diluted Detection Reagent Mix (d2 and Cryptate) was added to the plates and incubated for 1 h in the dark. Plates were read on the PHERAstar microplate reader (BMG Labtech Cary, NC) to determine the HTRF ratio of the acceptor and donor emission signals. The IP1 concentrations were calculated from a standard curve following the IP-One GQ kit instructions. Wells with DMSO only and wells with high concentration of reference antagonist were used as controls for normalization. Compound IC50 curves were globally fitted with 3- or 4-parameter Hill equation in a Genedata Screener (Genedata Basel, Switzerland).

The target in test [2] is T1, MRGPRX2. Description: MRGPRX2 FLIPR calcium mobilization assay. To be noted: CHO-K1 cells stably expressing human MRGPRX2; agonist Cortistatin-14 at EC80; Ca2+ release. It is filed as cell-based. More on the design: host or cells: CHO-K1. The method, then:
Chinese hamster ovary (CHO-K1) cells stably expressing human MRGPRX2 were purchased from Genescript (Piscataway, NJ). The cells were maintained in culture medium (Ham's F-12K) containing 10% (v/v) FBS, 200 μg/mL Zeocin, 100 units/mL penicillin G and 100 μg/mL streptomycin (Life Technologies, Carlsbad, CA). For the assay, the cells were harvested and resuspended with culture medium without Zeocin before plating at 8000 cells per well in 20 μL in 384-well black clear bottom cell culture plates (VWR, Radnor, PA). After 24 h culture at 37° C. and 5% CO2, the cells were loaded with 20 μL/well of calcium dye (FLIPR Calcium 6 Assay Kit, Molecular Devices, San Jose, CA) diluted in loading buffer (1× Hank's Balanced Salt Solution (HBSS), 5 mM probenecid, 20 mM 4-(2-hydroxyethyl)-1-piperazineethanesulfonic acid (HEPES), pH 7.4, VWR, Radnor, PA) followed with 45 min. incubation at 37° C. and 40 min. at r.t. in the dark. Cells were then treated with the addition of 10 uL/well test compounds with a range of increasing concentrations diluted in the assay buffer (1×HBSS, 20 mM HEPES, pH 7.4, VWR, Radnor, PA) with FLIPR Penta (Molecular Devices. San Jose, CA) and incubated for 30 min. at r.t. Ca^2+ release was measured with FLIPR Penta with 10 s basal fluorescence measurement, then 12.5 μL of 5× agonist Cortistatin-14 (Tocris, Minneapolis, MN) at final concentration corresponding to the EC80 were added followed with continued fluorescence signal monitoring for an additional 110 s. The base line adjusted (median of first 10s base line) max value of the Relative Fluorescence Unit (RFU) was plotted against compound concentrations. Wells with no compound were served as the positive controls, and wells with high concentration of reference antagonist were used as negative controls. IC50 curves were globally fitted with 3- or 4-parameter Hill equation in a Genedata Screener (Genedata Basel, Switzerland).
(In general: A change in cytosolic calcium serves as a functional read-out for many receptors and channels.)

Regarding `FC(F)(F)c1cc(N[C@H]2CCC[C@@H](Nc3nccc4nccn34)C2)n2nc(C(F)(F)F)cc2n1` [Example 17, (1S,3R)—N^1-(2,5-Bis(trifluoromethyl)pyrazolo[1,5-a]pyrimidin-7-yl)-N^3-(imidazo[1,2-c]pyrimidin-5-yl)cyclohexane-1,3-diamine], the IC50 on MRGPRX2 [1] and on MRGPRX2 [2] was 0.1 to 100 nM in each case.
As to `FC(F)(F)c1cc(N[C@H]2CCC[C@@H](Nc3nccc4ncccc34)C2)n2nc(C(F)(F)F)cc2n1` [Example 11, (1S,3R)—N^1-(2,5-Bis(trifluoromethyl)pyrazolo[1,5-a]pyrimidin-7-yl)-N^3-(1,6-naphthyridin-5-yl)cyclohexane-1,3-diamine], the IC50 on MRGPRX2 [1] and at MRGPRX2 [2] was 0.1 to 100 nM in each case.
`Cn1cnc2ccnc(N[C@@H]3CCC[C@H](Nc4cc(C(F)(F)F)nc5cc(Br)nn45)C3)c21` [Example 13, (1S,3R)—N^1-(2-Bromo-5-(trifluoromethyl)pyrazolo[1,5-a]pyrimidin-7-yl)-N^3-(3-methyl-3H-imidazo[4,5-c]pyridin-4-yl)cyclohexane-1,3-diamine]: the IC50 on MRGPRX2 [1] lay within 100 to 1000 nM; at MRGPRX2 [2], 0.1 to 100 nM.
For `FC(F)(F)c1cc(N[C@H]2CCC[C@@H](Nc3nccc4ncccc34)C2)n2nc(Br)cc2n1` [Example 9, (1S,3R)—N^1-(2-Bromo-5-(trifluoromethyl)pyrazolo[1,5-a]pyrimidin-7-yl)-N^3-(1,6-naphthyridin-5-yl)cyclohexane-1,3-diamine] the same measures were 0.1 to 100 nM and 0.1 to 100 nM.
The like results for `FC(F)(F)c1cc(N[C@H]2CCC[C@@H](Nc3nccn4cncc34)C2)n2nc(Br)cc2n1` [Example 12, (1S,3R)—N^1-(2-Bromo-5-(trifluoromethyl)pyrazolo[1,5-a]pyrimidin-7-yl)-N^3-(imidazo[1,5-a]pyrazin-8-yl)cyclohexane-1,3-diamine] were, in that order, 100 to 1000 nM and 0.1 to 100 nM.
The like results for `FC(F)(F)c1cc(N[C@H]2CCC[C@@H](Nc3nccc4nccn34)C2)n2nc(Br)cc2n1` [Example 16, (1S,3R)—N^1-(2-Bromo-5-(trifluoromethyl)pyrazolo[1,5-a]pyrimidin-7-yl)-N^3-(imidazo[1,2-c]pyrimidin-5-yl)cyclohexane-1,3-diamine] were, in that order, 100 to 1000 nM and 0.1 to 100 nM.
On to `Cc1cc2nc(C(F)(F)F)cc(N[C@H]3CCC[C@@H](Nc4nccc5ncccc45)C3)n2n1` [Example 7, (1S,3R)—N^1-(2-Methyl-5-(trifluoromethyl)pyrazolo[1,5-a]pyrimidin-7-yl)-N^3-(1,6-naphthyridin-5-yl)cyclohexane-1,3-diamine], for which the IC50 at MRGPRX2 [1] was in the range of 100 to 1000 nM; on MRGPRX2 [2], 0.1 to 100 nM.
Regarding `FC(F)(F)c1cc(N[C@H]2CCC[C@@H](Nc3nccn4nccc34)C2)n2nc(Br)cc2n1` [Example 8, (1S,3R)—N^1-(2-Bromo-5-(trifluoromethyl)pyrazolo[1,5-a]pyrimidin-7-yl)-N^3-(pyrazolo[1,5-a]pyrazin-4-yl)cyclohexane-1,3-diamine], the 50% inhibitory concentration (IC50) is 100 to 1000 nM on MRGPRX2 [1] and 0.1 to 100 nM at MRGPRX2 [2].
For `Cn1cnc2ccnc(N[C@@H]3CCC[C@H](Nc4cc(C(F)(F)F)nc5cc(C(F)(F)F)nn45)C3)c21` [Example 15, (1S,3R)—N^1-(2,5-Bis(trifluoromethyl)pyrazolo[1,5-a]pyrimidin-7-yl)-N^3-(3-methyl-3H-imidazo[4,5-c]pyridin-4-yl)cyclohexane-1,3-diamine] the same measures were 100 to 1000 nM and 0.1 to 100 nM.
On to `FC(F)(F)c1cn2c(N[C@H]3CCC[C@@H](Nc4nccn5cncc45)C3)cccc2n1` [Example 4, (1R,3S)—N^1-(Imidazo[1,5-a]pyrazin-8-yl)-N^3-(2-(trifluoromethyl)imidazo[1,2-a]pyridin-5-yl)cyclohexane-1,3-diamine], for which the values for the IC50 on MRGPRX2 [1] and on MRGPRX2 [2] were 100 to 1000 nM and 0.1 to 100 nM, respectively.
For the molecule `Cc1cc2nc(C(F)(F)F)cc(N[C@H]3CCC[C@@H](Nc4nccc5ncn(C)c45)C3)n2n1` [Example 6, (1R,3S)—N^1-(3-Methyl-3H-imidazo[4,5-c]pyridin-4-yl)-N^3-(2-methyl-5-(trifluoromethyl)pyrazolo[1,5-a]pyrimidin-7-yl)cyclohexane-1,3-diamine], on MRGPRX2 [2], the IC50 lay in the range of 100 to 1000 nM.
For the molecule `Cn1cnc2ccnc(N[C@H]3CC[C@@H](Nc4cccc5nc(C(F)(F)F)cn45)CC3)c21` [Example 2, (1s,4s)-N^1-(3-Methyl-3H-imidazo[4,5-c]pyridin-4-yl)-N^4-(2-(trifluoromethyl)imidazo[1,2-a]pyridin-5-yl)cyclohexane-1,4-diamine], the IC50 was in the range of 100 to 1000 nM on MRGPRX2 [1] and 0.1 to 100 nM on MRGPRX2 [2].
The like results for `FC(F)(F)c1cc(N[C@H]2CCC[C@@H](Nc3nnc4ccccn34)C2)n2nc(C(F)(F)F)cc2n1` [Example 18, (1R,3S)—N^1—([1,2,4]Triazolo[4,3-a]pyridin-3-yl)-N^3-(2,5-bis(trifluoromethyl)pyrazolo[1,5-a]pyrimidin-7-yl)cyclohexane-1,3-diamine] were, in that order, 100 to 1000 nM and 0.1 to 100 nM.
For `FC(F)(F)c1cc(N[C@H]2CCC[C@@H](Nc3nnc4ccccn34)C2)n2nc(Br)cc2n1` [Example 10, (1R,3S)—N^1—([1,2,4]Triazolo[4,3-a]pyridin-3-yl)-N^3-(2-bromo-5-(trifluoromethyl)pyrazolo[1,5-a]pyrimidin-7-yl)cyclohexane-1,3-diamine] the same measures were 100 to 1000 nM and 0.1 to 100 nM.
For `Cn1cnc2ccnc(N[C@@H]3CCC[C@H](Nc4cccc5nc(C(F)(F)F)cn45)C3)c21` [Example 1, (1R,3S)—N^1-(3-Methyl-3H-imidazo[4,5-c]pyridin-4-yl)-N^3-(2-(trifluoromethyl)imidazo[1,2-a]pyridin-5-yl)cyclohexane-1,3-diamine], the IC50 at MRGPRX2 [1] and on MRGPRX2 [2] was 100 to 1000 nM in each case.
On to `FC(F)(F)c1cc(N[C@H]2CCC[C@@H](Nc3nccn4cncc34)C2)n2nc(C(F)(F)F)cc2n1` [Example 14, (1S,3R)—N^1-(2,5-Bis(trifluoromethyl)pyrazolo[1,5-a]pyrimidin-7-yl)-N^3-(imidazo[1,5-a]pyrazin-8-yl)cyclohexane-1,3-diamine], for which the IC50 lay within 100 to 1000 nM on MRGPRX2 [1] and 0.1 to 100 nM at MRGPRX2 [2].

The term IC50 denotes the midpoint of a concentration-inhibition curve.

The values are drawn from patent US20250154174A1, “BICYCLIC HETEROCYCLES AS MRGPRX2 ANTAGONISTS” (Incyte Corporation, priority 2023, published 2025).
